Test [1] has as its target T1, M3 muscarinic receptor subtype (hM3) (Homo sapiens, UniProt P20309).
T1 construct: expressed in transfected cells
Put plainly: Radioligand binding assay ([3H]-NMS displacement, CHO cell membranes). The note with it: [3H]-NMS 1 nM, this or a similar assay. The protocol: CHO cell lines stably expressing cloned human hM1, hM2, hM3 and hM4 muscarinic receptor subtypes, respectively, were grown to near confluency in medium consisting of HAM's F-12 supplemented with 10% FBS and 250 μg/mL Geneticin. The cells were grown in a 5% CO2, 37° C. incubator and lifted with 2 mM EDTA in dPBS. Cells were collected by 5 minute centrifugation at 650×g, and cell pellets were either stored frozen at −80° C. or membranes were prepared immediately. For membrane preparation, cell pellets were resuspended in lysis buffer and homogenized with a Polytron PT-2100 tissue disrupter (Kinematica AG; 20 seconds×2 bursts). Crude membranes were centrifuged at 40,000×g for 15 minutes at 4° C. […] The protein concentration of the membrane suspension was determined by the method described in Lowry, O. et al., Journal of Biochemistry 193:265 (1951). […]
Radioligand binding assays were performed in 96-well microtiter plates in a total assay volume of 100 μL. […] Filter plates were rinsed three times with wash buffer (10 mM HEPES) to remove unbound radioactivity. […] The plates were then counted in a PerkinElmer Topcount liquid scintillation counter (PerkinElmer Inc., Wellesley, Mass.). Binding data were analyzed by nonlinear regression analysis with the GraphPad Prism Software package (GraphPad Software, Inc., San Diego, Calif.) using the one-site competition model. […]

For test [2], the system named is ACh-induced bronchoconstriction. Put plainly: Duration of bronchoprotection in guinea pig model of acetylcholine-induced bronchoconstriction. In kind it is in vivo. The note with it: inhalation, 1.5 hours post-dose, expected. The method, then: Groups of six male guinea pigs (Duncan-Hartley (HsdPoc:DH) Harlan, Madison, Wis.) weighing between 250 and 350 g are individually identified by cage cards. Throughout the study, animals are allowed access to food and water ad libitum.
Test compounds are administered via inhalation over 10 minutes in a whole-body exposure dosing chamber (R&S Molds, San Carlos, Calif.). The dosing chambers are arranged so that an aerosol was simultaneously delivered to 6 individual chambers from a central manifold. Guinea pigs are exposed to an aerosol of a test compound or vehicle (WFI). […] This is measured gravimetrically by comparing pre-and post-nebulization weights of the filled nebulizer.
The bronchoprotective effects of test compounds administered via inhalation are evaluated using whole body plethysmography at 1.5, 24, 48 and 72 hours post-dose.
Forty-five minutes prior to the start of the pulmonary evaluation, each guinea pig is anesthetized with an intramuscular injection of ketamine (43.75 mg/kg), xylazine (3.50 mg/kg) and acepromazine (1.05 mg/kg). […] The depth of anesthesia is monitored and adjusted if the animal responds to pinching of its paw or if the respiration rate is greater than 100 breaths/minute. […]
Starting this program initiates the experimental protocol and data collection. […] By integrating this signal over time, a measurement of […] is calculated for each breath. […]

Structures are written as SMILES.

T1 sequence (P20309 whole entry): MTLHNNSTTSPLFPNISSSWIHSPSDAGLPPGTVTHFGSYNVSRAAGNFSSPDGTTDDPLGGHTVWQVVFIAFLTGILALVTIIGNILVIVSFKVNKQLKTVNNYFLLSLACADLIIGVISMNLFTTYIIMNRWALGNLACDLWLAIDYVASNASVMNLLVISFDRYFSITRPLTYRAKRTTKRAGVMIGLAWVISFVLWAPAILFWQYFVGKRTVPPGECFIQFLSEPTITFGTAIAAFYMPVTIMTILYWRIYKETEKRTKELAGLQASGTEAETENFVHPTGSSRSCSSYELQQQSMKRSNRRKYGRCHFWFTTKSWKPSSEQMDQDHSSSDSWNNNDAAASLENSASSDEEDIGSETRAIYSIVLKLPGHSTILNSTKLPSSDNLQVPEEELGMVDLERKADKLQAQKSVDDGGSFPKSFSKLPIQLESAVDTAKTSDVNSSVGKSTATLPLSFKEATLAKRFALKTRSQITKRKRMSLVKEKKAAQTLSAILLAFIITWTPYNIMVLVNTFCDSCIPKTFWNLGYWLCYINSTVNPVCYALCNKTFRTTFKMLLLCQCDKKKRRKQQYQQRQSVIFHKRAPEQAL

By Ki is commonly meant a measure of affinity in units of concentration, obtained from inhibition or displacement. A lower Ki goes with a stronger hold on the target. With `CN(CCN1CCC(OC(=O)Nc2ccccc2-c2ccccc2)CC1)C(=O)c1cccc(C(=O)NCCNCc2ccc(O)cc2)c1` [compound of formula I, biphenyl-2-ylcarbamic acid 1-[2-({3-[2-(4-hydroxybenzylamino)ethylcarbamoyl]benzoyl}methylamino)ethyl]piperidin-4-yl ester], the Ki in test [1] is < 5 nM. Also, in test [2], the “PD2(50) for ACh-induced bronchoconstriction” value is recorded as “less than 200 μg/mL”.

Values taken from US7973055B2, “Crystalline forms of a biphenyl compound” (Theravance, Inc., priority 2006, dated 2011).
